In US5120752A, “Cyclopropyl derivative lipoxygenase inhibitors” (Abbott Laboratories, priority 1990, dated 1992):

How the values were obtained:
[1] = target: T1, 5-lipoxygenase (Rattus norvegicus, UniProt P12527); test: In vitro inhibition of 5-lipoxygenase (20,000×g supernatant from homogenized RBL-1 cells, radiolabeled arachidonic acid); format: biochemical; settings: 20,000×g supernatant of RBL-1 cells; triplicate; read-out: IC50 (in vitro inhibitory potency against 5-lipoxygenase)
T1 construct: 20,000×g supernatant from 1.5 million homogenized RBL-1 cells; endogenous in cells; host or cells: RBL-1 cells (20,000×g supernatant of homogenate)
T1 sequence (P12527 1-673): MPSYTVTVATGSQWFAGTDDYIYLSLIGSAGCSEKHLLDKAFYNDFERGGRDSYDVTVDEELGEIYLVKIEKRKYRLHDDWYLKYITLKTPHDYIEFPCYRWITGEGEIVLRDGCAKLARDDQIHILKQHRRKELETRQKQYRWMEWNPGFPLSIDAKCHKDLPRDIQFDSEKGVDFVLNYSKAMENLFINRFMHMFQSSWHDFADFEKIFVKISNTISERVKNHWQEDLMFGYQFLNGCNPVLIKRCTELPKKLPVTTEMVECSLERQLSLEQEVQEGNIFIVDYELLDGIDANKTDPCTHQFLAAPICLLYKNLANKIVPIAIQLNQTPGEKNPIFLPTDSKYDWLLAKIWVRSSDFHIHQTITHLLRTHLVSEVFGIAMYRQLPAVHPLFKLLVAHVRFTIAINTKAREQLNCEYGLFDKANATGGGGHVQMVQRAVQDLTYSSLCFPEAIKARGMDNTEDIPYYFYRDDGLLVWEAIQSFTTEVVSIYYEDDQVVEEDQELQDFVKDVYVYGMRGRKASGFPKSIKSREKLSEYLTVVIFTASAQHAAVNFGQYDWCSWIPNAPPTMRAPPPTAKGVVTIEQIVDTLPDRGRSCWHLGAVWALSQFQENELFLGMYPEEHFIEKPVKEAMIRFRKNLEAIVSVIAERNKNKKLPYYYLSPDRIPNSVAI
Experimental: Assays to determine 5-lipoxygenase inhibitory activity were performed in […] incubations containing the 20,000×g supernatant from 1.5 million homogenized RBL-1 cells and various concentrations of the test compound. Reactions were initiated by addition of radiolabeled arachidonic acid and terminated by acidification and ether extraction. Reaction products were separated from nonconverted substrate by thin layer chromatography and measured by liquid scintillation spectroscopy. All incubations were performed in triplicate. Inhibition of 5-lipoxygenase activity was calculated as the ratio of the amount of product formed in the presence and absence of inhibitor. IC50 values (concentration of compound producing 50% enzyme inhibition) were calculated by linear regression analysis of percentage inhibition versus log inhibitor concentration plots. (Dyer, R .D.; Haviv, F.; Hanel, A. M.; Bornemier, D. A.; Carter, G. W. Fed. Proc., Fed. Am. Soc. Exp. Biol. 1984, 43, 1462A).

[2] = test system: leukotriene biosynthesis; test: Inhibition of leukotriene biosynthesis in vivo after oral administration, rat peritoneal anaphylaxis model; settings: 200 μmol/kg oral (gavage), 1 h before antigen challenge; for inhibition in vivo at 200 µmol/kg: read-out: % Inhibition of Leukotrienes at 200 μmol/kg oral dose
Experimental: Inhibition of the biosynthesis of leukotrienes in vivo after oral administration of representative test compounds of this invention was determined using a rat peritoneal anaphylaxis model in a similar manner as that described by Young and coworkers (Young, P. R.; Dyer, R. D.; Carter, G. W. Fed. Proc., Fed. Am. Soc. Exp. Biol. 1985, 44, 1185). In this model rats were injected intraperitoneally (ip) with rabbit antibody to bovine serum albumin (BSA) and three hours later injected ip with BSA to induce an antgen-antibody response. Rats were sacrificed 15 minutes after this challenge and the peritoneal fluids were collected and analyzed for leukotriene levels. Test compounds were administered by gavage one hour prior to the antigen challenge. Percent inhibition values were determined by comparing the treatment group to the mean of the control group. The results of this assay, for representative compounds of the present invention, at an oral dose level of […] are presented in Table 2, and at an oral dose of […] in Table 3.

[3] = test system: LTB4 biosynthesis in human whole blood; test: Inhibition of calcium ionophore-induced LTB4 biosynthesis in human whole blood; format: cell-based; settings: A23187 50 μM, 15 min preincubation, read-out: Inhibition of Leukotriene Biosynthesis IC50
Experimental: Inhibition of leukotriene biosynthesis was evaluated in an assay, involving calcium ionophore-induced LTB4 biosynthesis expressed by human whole blood. Heparinized (20 U/mL) human blood (0.3 mL) was preincubated with test compound or vehicle for 15 min. at 37° C. Eicosanoid biosynthesis was initiated by adding calcium ionophore (A23187) in DMSO to a final concentration of 50 μM and terminated after 30 min. by rapid cooling of the blood in an ice bath and centrifuging at 3° C. for 10 min at 2500×g. The plasma was mixed with 4 volumes of methanol and allowed to stand for at least 30 min. at 3° C. prior to centrifuging at 1800×g for 10 min. The level of LTB4 in aliquots of the methanol-plasma extract was analyzed by radio-immunoassay or enyme-immunoassay techniques.

NC(=O)N(O)CC[C@@H]1C[C@H]1c1ccccc1 (relative stereo) [Example 34, N-(2-trans-(2-phenylcyclopropyl)ethyl)-N-hydroxyurea]
IC50 [1]: 300 nM
inhibition in vivo at 200 µmol/kg [2]: 100%

CNC(=O)N(O)C[C@@H]1C[C@H]1c1ccsc1 (relative stereo) [Example 187, N-(1-trans-(2-(3-thienyl)cyclopropyl)methyl)-N-hydroxy-N'-methylurea]
IC50 [3]: 210 nM

CC(Oc1ccc([C@@H]2C[C@H]2CN(O)C(N)=O)cc1)c1ccccc1 (stereo partly drawn) [Example 23, N-(1-trans-(2-(4-(1-phenylethoxy)phenyl)cyclopropyl)methyl)-N-hydroxyurea]
IC50 [1]: 100 nM
inhibition in vivo at 200 µmol/kg [2]: 93%

Cc1ccc([C@@H]2C[C@H]2C(C)N(O)C(N)=O)s1 (some centres unmarked) [Example 182]
IC50 [3]: 690 nM

CC(C)Cc1ccc([C@@H]2C[C@H]2C(C)N(O)C(N)=O)cc1 (stereo partly drawn) [Example 19, N-(1-trans-(2-(4-(2-methyl-1-propyl)phenyl)cyclopropyl)-ethyl)-N-hydroxyurea]
inhibition in vivo at 200 µmol/kg [2]: 64%

COc1ccc([C@@H]2C[C@H]2C(C)N(O)C(C)=O)cc1 (stereo partly drawn) [Example 29, N-(1-trans-(2-(4-methoxyphenyl)cyclopropyl)ethyl)-N-hydroxyacetamide]
IC50 [1]: 900 nM
inhibition in vivo at 200 µmol/kg [2]: 96%

COc1ccc([C@@H]2C[C@H]2C(C)N(O)C(N)=O)cc1 (stereo partly drawn) [Example 22, N-(1-trans-(2-(4-methoxyphenyl)cyclopropyl)ethyl)-N-hydroxyurea]
IC50 [1]: 900 nM
inhibition in vivo at 200 µmol/kg [2]: 96%

NC(=O)N(O)C[C@@H]1C[C@H]1c1ccccc1Oc1ccccc1 (relative stereo) [Example 40, N-(1-trans-(2-(2-phenoxyphenyl)cyclopropyl)methyl)-N-hydroxyurea]
IC50 [1]: 200 nM
inhibition in vivo at 200 µmol/kg [2]: 97%

NC(=O)N(O)C[C@H]1C[C@H]1c1ccccc1 (relative stereo) [Example 16, N-(1-cis-(2-phenylcyclopropyl)methyl)-N-hydroxyurea]
IC50 [1]: 2800 nM
inhibition in vivo at 200 µmol/kg [2]: 61%

CC([C@@H]1C[C@H]1c1ccc(Br)cc1)N(O)C(N)=O (stereo partly drawn) [Example 37, N-(1-trans-(2-(4-bromophenyl)cyclopropyl)ethyl)-N-hydroxyurea]
IC50 [1]: 100 nM
inhibition in vivo at 200 µmol/kg [2]: 93%

CC([C@@H]1C[C@H]1c1ccccc1)N(O)C(N)=O (stereo partly drawn) [Example 3, N-(1-trans-(2-phenylcyclopropyl)ethyl)-N-hydroxyurea]
IC50 [1]: 1600 nM
inhibition in vivo at 200 µmol/kg [2]: 100%

CNC(=O)N(O)C[C@@H]1C[C@H]1c1cccc(Oc2ccccc2)c1 (relative stereo) [Example 11, N-(1-trans-(2-(3-phenoxyphenyl)cyclopropyl)methyl)-N-hydroxy-N'-methylurea]
IC50 [1]: 100 nM
inhibition in vivo at 200 µmol/kg [2]: 65%

CNC(=O)N(O)C[C@@H]1C[C@H]1c1cc2ccccc2s1 (relative stereo) [Example 13]
inhibition in vivo at 200 µmol/kg [2]: 76%

Cc1ccc([C@@H]2C[C@H]2C(C)N(O)C(N)=O)o1 (relative stereo) [Example 26, N-(1-trans-((5-methylfuran-2-yl)cyclopropyl)ethyl)-N-hydroxyurea]
IC50 [1]: 1100 nM
% Inhibition of Leukotrienes at 200 μmol/kg oral dose [2]: 92%

Cc1ccc([C@@H]2C[C@H]2C(C)N(O)C(N)=O)cc1 (stereo partly drawn) [Example 39, N-(1-trans-(2-(4-methylphenyl)cyclopropyl)ethyl)-N-hydroxyurea]
inhibition in vivo at 200 µmol/kg [2]: 82%

Cc1ccc([C@@H]2C[C@H]2CN(O)C(N)=O)cc1 (relative stereo) [Example 47, N-(1-trans-(2-(4-methylphenyl)cyclopropyl)methyl)-N-hydroxyurea]
IC50 [1]: 300 nM
inhibition in vivo at 200 µmol/kg [2]: 100%

CC(N(O)C(N)=O)[C@]1(C)C[C@H]1c1ccccc1 (stereo partly drawn) [Example 5, N-(1-trans-(1-methyl-2-phenylcyclopropyl)ethyl)-N-hydroxyurea]
inhibition in vivo at 200 µmol/kg [2]: 90%

CC(=O)N(O)C(C)[C@@H]1C[C@H]1c1cc2ccccc2s1 (stereo partly drawn) [Example 28, N-(1-trans-(2-(benzo[b]thien-2-yl)cyclopropyl)ethyl)-N-hydroxyacetamide]
IC50 [1]: 100 nM
inhibition in vivo at 200 µmol/kg [2]: 73%

CC(C1CC1c1ccccc1)N(O)C(N)=O (stereo not drawn) [Example 9, N-(1-cis-(2-phenylcyclopropyl)ethyl)-N-hydroxyurea]
IC50 [1]: 1800 nM
inhibition in vivo at 200 µmol/kg [2]: 61%

NC(=O)N(O)C[C@@H]1C[C@H]1c1ccccc1 (relative stereo) [Example 4, N-1-(trans-(2-phenylcyclopropyl)methyl)-N-hydroxyurea]
IC50 [1]: 1800 nM
inhibition in vivo at 200 µmol/kg [2]: 97%

CNC(=O)N(O)C(C)[C@@H]1C[C@H]1c1cccc(Oc2ccccc2)c1 (stereo partly drawn) [Example 17, N-(1-trans-(2-(3-phenoxyphenyl)cyclopropyl)ethyl)-N-hydroxy-N'-methylurea]
IC50 [1]: 70 nM
inhibition in vivo at 200 µmol/kg [2]: 81%

NC(=O)N(O)C[C@@H]1C[C@H]1c1ccc(Br)cc1 (relative stereo) [Example 35, N-(1-trans-(2-(4-bromophenyl)cyclopropyl)methyl)-N-hydroxyurea]
inhibition in vivo at 200 µmol/kg [2]: 99%

CC([C@@H]1C[C@H]1c1cc2ccccc2s1)N(O)C(N)=O (stereo partly drawn) [Example 1, N-(1-trans-(2-(benzo[b]thien-2-yl)cyclopropyl)ethyl)-N-hydroxyurea]
inhibition in vivo at 200 µmol/kg [2]: 62%

CC([C@@H]1C[C@H]1c1ccc2ccccc2c1)N(O)C(N)=O (stereo partly drawn) [Example 45, N-(1-trans-((2-napthyl)cyclopropyl)ethyl)-N-hydroxyurea]
IC50 [1]: 300 nM

NC(=O)N(O)C[C@@H]1C[C@H]1c1cccc(Oc2ccccc2)c1 (relative stereo) [Example 10, N-(1-trans-(2-(3-phenoxyphenyl)cyclopropyl)methyl)-N-hydroxyurea]
IC50 [1]: 100 nM
inhibition in vivo at 200 µmol/kg [2]: 97%

CC(=O)N(O)C(C)[C@@H]1C[C@H]1c1ccc2ccccc2c1 (some centres unmarked) [Example 57]
IC50 [1]: 300 nM

CC(=O)N(O)C[C@@H]1C[C@H]1c1ccc(Br)cc1 (relative stereo) [Example 38, N-(1-trans-(2-(4-bromophenyl)cyclopropyl)methyl)-N-hydroxyacetamide]
IC50 [1]: 30 nM

NC(=O)N(O)C[C@@H]1C[C@H]1CCc1ccccc1 (relative stereo) [Example 33, N-(1-trans-(2-(2-phenylethyl)cyclopropyl)methyl)-N-hydroxyurea]
inhibition in vivo at 200 µmol/kg [2]: 84%

CC(Oc1ccc([C@H]2[C@H](CN(O)C(N)=O)C2(C)C)cc1)c1ccccc1 (some centres unmarked) [Example 25]
IC50 [1]: 100 nM
inhibition in vivo at 200 µmol/kg [2]: 52%

CC(=O)N(O)C[C@@H]1C[C@H]1c1ccccc1 (relative stereo) [Example 27, N-(1-trans-(2-phenylcyclopropyl)methyl)-N-hydroxyacetamide]
IC50 [1]: 1700 nM
inhibition in vivo at 200 µmol/kg [2]: 99%

NC(=O)N(O)C[C@@H]1C[C@H]1c1cc2ccccc2s1 (relative stereo) [Example 12]
inhibition in vivo at 200 µmol/kg [2]: 68%

CN(O)C(=O)[C@@H]1C[C@H]1c1cccc(Oc2ccccc2)c1 (relative stereo) [Example 30]
IC50 [1]: 100 nM
